According to ChEMBL document CHEMBL1201862, “PubChem BioAssay data set” (2004):
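Each compound was tested at five concentrations against cells in 96-well plates for 48 hours. Here, GI50 denotes the concentration required for 50% inhibition of growth.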 The source made the active and inactive calls. Rule as the data show it: active = GI50 up to about 1.1 µM and inactive = higher.

Columns and labels:
Assay in all cases: DTP human tumour cell line panel, 48 h
[1] = tested on: 786-0
[2] = tested on: A498
[3] = tested on: A549
[4] = tested on: BT-549
[5] = tested on: CCRF-CEM
[6] = tested on: HT-29
[7] = tested on: KM12
[8] = tested on: MCF7
[9] = tested on: MOLT-4
[10] = tested on: Malme-3M
[11] = tested on: SF-295
[12] = tested on: SF-539
[13] = tested on: SK-MEL-28
[14] = tested on: SK-MEL-5
[15] = tested on: SK-OV-3
[16] = tested on: SNB-75
[17] = tested on: SR
[18] = tested on: U-251
[19] = tested on: UACC-62
[20] = tested on: LXFL 529

| Structure (SMILES) | GI50 [1] | GI50 [2] | GI50 [3] | GI50 [4] | GI50 [5] | GI50 [6] | GI50 [7] | GI50 [8] | GI50 [9] | GI50 [10] | GI50 [11] | GI50 [12] | GI50 [13] | GI50 [14] | GI50 [15] | GI50 [16] | GI50 [17] | GI50 [18] | GI50 [19] | GI50 [20] |
| --- | --- | --- | --- | --- | --- | --- | --- | --- | --- | --- | --- | --- | --- | --- | --- | --- | --- | --- | --- | --- |
| Nc1ccc2c3[nH]c4cc(N)ccc4cc-3nc2c1 | 0.121 µM (active) | 0.138 µM (active) | 0.286 µM (active) | 0.984 µM (active) | 0.158 µM (active) | 0.145 µM (active) | 0.167 µM (active) | 0.069 µM (active) | 0.0789 µM (active) | 2.66 µM (inactive) | 0.265 µM (active) | 0.231 µM (active) | 0.0746 µM (active) | 0.237 µM (active) | 0.314 µM (active) | 0.12 µM (active) | 0.0535 µM (active) | 0.156 µM (active) | 0.194 µM (active) | – |
| CCCCCCCCCCNC(=O)CCC(NC(=O)c1ccc(N(C)Cc2cnc3nc(N)nc(N)c3n2)cc1)C(=O)NCCCCCCCCCC (stereo unspecified) | 3.05 µM (inactive) | 30.5 µM (inactive) | 28.6 µM (inactive) | 9.27 µM (inactive) | 2.53 µM (inactive) | 10.5 µM (inactive) | 4.89 µM (inactive) | 4.06 µM (inactive) | 2.99 µM (inactive) | 12.4 µM (inactive) | 43.7 µM (inactive) | 5.13 µM (inactive) | 8.79 µM (inactive) | 3.9 µM (inactive) | 27.8 µM (inactive) | 11.9 µM (inactive) | 2.94 µM (inactive) | 4.2 µM (inactive) | 18.9 µM (inactive) | – |
| CSc1ncnc2c1ncn2CC(=O)C1CCC2C3CCC4=CC(=O)CCC4(C)C3CCC12C (stereo unspecified) | 11 µM (inactive) | 5.13 µM (inactive) | 6.81 µM (inactive) | 2.58 µM (inactive) | 0.729 µM (active) | 3.76 µM (inactive) | 2.84 µM (inactive) | 3.08 µM (inactive) | 1.69 µM (inactive) | 7.16 µM (inactive) | 3.21 µM (inactive) | 8.41 µM (inactive) | 5.47 µM (inactive) | 2.04 µM (inactive) | 16.3 µM (inactive) | 5.19 µM (inactive) | 2.16 µM (inactive) | 7.62 µM (inactive) | 3.21 µM (inactive) | – |
| OC(NN=C1CCCC1)(C(F)(F)Cl)C(F)(F)Cl | > 10 µM (inactive) | > 10 µM (inactive) | > 10 µM (inactive) | > 10 µM (inactive) | > 10 µM (inactive) | > 10 µM (inactive) | > 10 µM (inactive) | > 10 µM (inactive) | > 10 µM (inactive) | > 10 µM (inactive) | > 10 µM (inactive) | > 10 µM (inactive) | > 10 µM (inactive) | > 10 µM (inactive) | > 10 µM (inactive) | > 10 µM (inactive) | > 10 µM (inactive) | > 10 µM (inactive) | > 10 µM (inactive) | – |
| COc1cccc2cc(C(=O)Nc3ccccn3)c(=N)oc12 | 95.1 µM (inactive) | > 100 µM (inactive) | > 100 µM (inactive) | 78.2 µM (inactive) | 22.8 µM (inactive) | > 100 µM (inactive) | 99.3 µM (inactive) | 19.1 µM (inactive) | 0.501 µM (active) | 50.9 µM (inactive) | > 100 µM (inactive) | > 100 µM (inactive) | > 100 µM (inactive) | > 100 µM (inactive) | 85.3 µM (inactive) | 59.2 µM (inactive) | 2.43 µM (inactive) | > 100 µM (inactive) | 64.4 µM (inactive) | – |
| COc1ccc(OCC(=O)O)c2c1CCC(C(C)C)C2=O (stereo unspecified) | > 100 µM (inactive) | > 100 µM (inactive) | > 100 µM (inactive) | – | > 100 µM (inactive) | > 100 µM (inactive) | > 100 µM (inactive) | – | > 100 µM (inactive) | > 100 µM (inactive) | > 100 µM (inactive) | > 100 µM (inactive) | > 100 µM (inactive) | > 100 µM (inactive) | > 100 µM (inactive) | – | – | > 100 µM (inactive) | > 100 µM (inactive) | > 100 µM (inactive) |
| CC(=O)OC(/C=C1/C=CC(=O)O1)COC(=O)c1ccccc1 (stereo unspecified) [ACETYLMELODORINOL] | > 31.2 µM (inactive) | > 31.2 µM (inactive) | > 31.2 µM (inactive) | – | > 31.2 µM (inactive) | > 31.2 µM (inactive) | > 31.2 µM (inactive) | – | – | > 31.2 µM (inactive) | > 31.2 µM (inactive) | > 31.2 µM (inactive) | > 31.2 µM (inactive) | > 31.2 µM (inactive) | > 31.2 µM (inactive) | > 31.2 µM (inactive) | – | > 31.2 µM (inactive) | > 31.2 µM (inactive) | > 31.2 µM (inactive) |
| CC1(C)O[C@@H]2[C@@H]3OC(=O)C[C@@H]3[C@@H](COCc3ccccc3)[C@@H]2O1 | > 100 µM (inactive) | > 100 µM (inactive) | > 100 µM (inactive) | > 100 µM (inactive) | > 100 µM (inactive) | > 100 µM (inactive) | > 100 µM (inactive) | > 100 µM (inactive) | > 100 µM (inactive) | > 100 µM (inactive) | > 100 µM (inactive) | > 100 µM (inactive) | > 100 µM (inactive) | > 100 µM (inactive) | > 100 µM (inactive) | > 100 µM (inactive) | > 100 µM (inactive) | > 100 µM (inactive) | > 100 µM (inactive) | – |
| CN1CCN(c2c(Cl)cc(Cl)c3[nH]c4ccccc4c(=O)c23)CC1 | 5.75 µM (inactive) | 3.96 µM (inactive) | 5.56 µM (inactive) | 16.1 µM (inactive) | 0.67 µM (active) | 3.22 µM (inactive) | 6.11 µM (inactive) | 1.43 µM (inactive) | 1.18 µM (inactive) | 1.96 µM (inactive) | 5.85 µM (inactive) | 3.94 µM (inactive) | 13.1 µM (inactive) | 9.71 µM (inactive) | 11.1 µM (inactive) | 9.91 µM (inactive) | 0.301 µM (active) | 5.82 µM (inactive) | 4.68 µM (inactive) | – |
| CN1C(=O)c2c(c3c4ccccc4n(C4OC(CO)C(O)C(O)C4O)c3c3[nH]c4ccccc4c23)C1=O (stereo unspecified) | 2.67 µM (inactive) | 1.45 µM (inactive) | 11.8 µM (inactive) | 4.99 µM (inactive) | 0.268 µM (active) | 3.13 µM (inactive) | 3.85 µM (inactive) | 5.51 µM (inactive) | 0.624 µM (active) | 0.194 µM (active) | 3.63 µM (inactive) | 1.36 µM (inactive) | 2.14 µM (inactive) | 1.36 µM (inactive) | 2.92 µM (inactive) | 3.95 µM (inactive) | 0.164 µM (active) | 0.681 µM (active) | 1.46 µM (inactive) | – |
| O=c1nc(NC(c2ccccc2)(c2ccccc2)c2ccccc2)ccn1CCNCCn1ccc(NC(c2ccccc2)(c2ccccc2)c2ccccc2)nc1=O | 14.1 µM (inactive) | 27 µM (inactive) | 26.2 µM (inactive) | – | 5.96 µM (inactive) | 5.83 µM (inactive) | 3.44 µM (inactive) | – | – | 11.8 µM (inactive) | 11.5 µM (inactive) | 11.3 µM (inactive) | 6.07 µM (inactive) | 5.48 µM (inactive) | 19.6 µM (inactive) | 20.2 µM (inactive) | – | 4.33 µM (inactive) | 4.42 µM (inactive) | 5.26 µM (inactive) |
| COC(=O)C(Cc1ccccc1)NC(=O)C(CCC(=O)OCc1ccccc1)NC(=O)OC(C)(C)C (stereo unspecified) | > 100 µM (inactive) | > 100 µM (inactive) | > 100 µM (inactive) | > 100 µM (inactive) | 64.9 µM (inactive) | 35.6 µM (inactive) | 83.9 µM (inactive) | 82.8 µM (inactive) | > 100 µM (inactive) | > 100 µM (inactive) | > 100 µM (inactive) | > 100 µM (inactive) | > 100 µM (inactive) | > 100 µM (inactive) | > 100 µM (inactive) | > 100 µM (inactive) | 27.2 µM (inactive) | > 100 µM (inactive) | > 100 µM (inactive) | – |
| CN(C)CCCn1c2ccccc2c2cnccc21 | 27.7 µM (inactive) | 38.5 µM (inactive) | 33.6 µM (inactive) | 80.4 µM (inactive) | 45.7 µM (inactive) | 25.1 µM (inactive) | 43.2 µM (inactive) | 35.2 µM (inactive) | 24.4 µM (inactive) | 28.6 µM (inactive) | 46.5 µM (inactive) | 20.6 µM (inactive) | 48.9 µM (inactive) | 19.7 µM (inactive) | 66.2 µM (inactive) | 66.1 µM (inactive) | 19.2 µM (inactive) | 39.1 µM (inactive) | 40.4 µM (inactive) | – |
| CN(C)C(=S)/N=c1\ss/c(=N\c2ccccc2)n1-c1ccccc1 | 16.1 µM (inactive) | 34 µM (inactive) | 25.6 µM (inactive) | – | 0.435 µM (active) | 0.154 µM (active) | – | – | 30 µM (inactive) | 21.3 µM (inactive) | 28.6 µM (inactive) | 16.3 µM (inactive) | 29 µM (inactive) | – | 40.6 µM (inactive) | 14.8 µM (inactive) | – | 24.7 µM (inactive) | – | 0.0542 µM (active) |
| N#CC12CC=C(c3ccccc3)N=C1NC(c1ccccc1)=CC2 (stereo unspecified) | > 100 µM (inactive) | 23.2 µM (inactive) | 54 µM (inactive) | 40.6 µM (inactive) | 32.2 µM (inactive) | 57.3 µM (inactive) | 51.5 µM (inactive) | 50 µM (inactive) | 21.8 µM (inactive) | > 100 µM (inactive) | 57.7 µM (inactive) | > 100 µM (inactive) | > 100 µM (inactive) | 19 µM (inactive) | > 100 µM (inactive) | 49 µM (inactive) | 29.9 µM (inactive) | 85.1 µM (inactive) | 86.7 µM (inactive) | – |
